Earlier results, collected in patent publication US20230233498A1, “COMPOSITIONS AND METHODS FOR THE TREATMENT OF COVID-19” (PROTHIONE, LLC, priority 2020, published 2023).
Read-outs that look alike come from different tables or passages of the source.

How the values were obtained:
[1] = system: Human Foreskin (HF) cells infected with HSV-2-strain G; details: 3 to 1.5 mM
[2] = system: zinc-dependent metalloproteinases; details: for GP shedding: higher concentrations (25-50 mM)
[3] = system: rotaviruses; details: 10 mM

**Q.** For `O=C(O)c1ccccn1` [picolinic acid], which “apoptosis of infected cells” value [1] is on record?
**A.** Its value is “cause apoptosis of HF infected cells”.

**Q.** Which GP shedding [2] does the source give for `CC(C)C[C@H](CC(=O)NO)C(=O)N[C@@H](Cc1ccc2ccccc2c1)C(=O)N[C@@H](C)C(=O)NCCN` [TAPI-I] here?
**A.** Its GP shedding is “reduced GP shedding”.

**Q.** Which “inhibition of glycoprotein shedding” value ([2]; concentration of 5 mM) does the source give for `COc1ccc(S(=O)(=O)N2Cc3ccccc3C[C@@H]2C(=O)NO)cc1` [MMP-8 inhibitor I] here?
**A.** Its value is “inhibitory effects were observed”.

**Q.** With `CNC(=O)[C@@H](NC(=O)[C@H](CC(C)C)[C@H](O)C(=O)NO)C(C)(C)C` [BB2516] as the molecule, how does the “inhibition of glycoprotein shedding” value ([2]; concentration of 0.5 mM) read?
**A.** Its value is “inhibitory effects were observed”.

**Q.** With `COc1ccc(S(=O)(=O)N(CC(=O)NO)CC(C)C)cc1` [MMP-3 inhibitor II] as the molecule, how does the GP shedding [2] read?
**A.** The GP shedding was “reduced GP shedding”.

**Q.** For `COc1ccc(S(=O)(=O)N(Cc2cccnc2)[C@@H](C(=O)NO)C(C)C)cc1` [CGS-27023A], which GP shedding [2] is on record?
**A.** Its GP shedding is “reduced GP shedding”.

**Q.** Which “inhibition of glycoprotein shedding” value ([2]; concentration of 5 mM) does the source give for `CNC(=O)[C@H](Cc1c[nH]c2ccccc12)NC(=O)[C@@H](CC(=O)NO)CC(C)C` [GM6001] here?
**A.** Its value is “inhibitory effects were observed”.

**Q.** Which “effect on viral particles” value [3] does the source give for `O=C(O)CN(CCN(CC(=O)O)CC(=O)O)CC(=O)O` [EDTA, ethylenediaminetetraacetic acid] here?
**A.** The value was “non-infectious viral particles”.
